Results taken from US7125955B2, “NIMA interacting proteins” (The Salk Institute for Biological Studies, priority 1995, dated 2006).

Target: T1, Pin1 (Homo sapiens, UniProt Q13526)
T1 construct: PTPI-PIN1 directs the synthesis of the native full length Pin1 protein; (His)6 (N); made in house; host or cells: E. coli BL21
Assay: PPIase assay: inhibition of Pin1 PPIase activity
Format: biochemical
Details: even at 25 μM
Protocol: PPIase activity of the purified recombinant proteins was assayed using the procedure of Heitman et al. (Methods, 5:176, 1993) with the following exceptions. The reaction was carried out 5° C. and chymotrypsin was added just before the peptide substrate (N-Succ-Ala-Pro-Phe-p-nitroanilide, Sigma). The cis to trans isomerization was monitored every 6 seconds by a change in the absorbance at 395 nm using DMS 2000 UV and Visible Spectrophotometer (Varian). FKBP, cyclosporin A and FK520, a FK506 derivative, were gifts of D. Schultz and C. Zuker; University of California, San Diego.
Because of the strong sequence in similarity between Pin1 and the third PPIase family, Pin was tested to determine if Pin could catalyze the cis/trans isomerization of peptidyl-prolyl peptide bonds in vitro, a characteristic of PPIase. Pin1 was expressed in bacteria with an N-terminal (His)6 tag and was purified from bacteria using a […] agarose column. […] The isomerase activity was measured as described in Example 1. The cis to trans isomerization was monitored every 6 seconds by a change in the absorbance at 395 nm, with the finally stable absorbance of each sample being set at 1.0. Different concentrations of Pin1 were used as indicated, with the recombinant FK506-binding protein (FKBP) PPIase being used as a positive control. The control sample contained all the ingredients except the PPIase. […]

T1 sequence (Q13526 whole entry): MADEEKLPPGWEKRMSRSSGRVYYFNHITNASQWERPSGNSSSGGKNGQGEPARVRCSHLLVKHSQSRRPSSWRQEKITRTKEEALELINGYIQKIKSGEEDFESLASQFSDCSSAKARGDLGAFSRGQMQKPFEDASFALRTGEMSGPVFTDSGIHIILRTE

inhibition of the PPIase activity of Pin1: not inhibited
SMILES: CC[C@@H]1/C=C(\C)C[C@H](C)C[C@H](OC)[C@H]2O[C@@](O)(C(=O)C(=O)N3CCCC[C@H]3C(=O)O[C@H](/C(C)=C/[C@@H]3CC[C@@H](O)[C@H](OC)C3)[C@H](C)[C@@H](O)CC1=O)[C@H](C)C[C@@H]2OC [FK520]
